# Assay results taken from US10358467B2, “Therapeutic targets for cancer progression” (The Regents of the University of California, priority 2015, dated 2019).
# B1: His-DAPLE-CT FA: His-DAPLE-CT with F1675A mutation, Gαi3 binding-deficient mutant (protein)
# chain: GTAPPYVGVRPCSASPSSEMVTLEEALEESNRSSPTHDTPSCRDDLLSDYFRKASDPPAIGGQPGPPAKKEGAKMPTNFVAPTVKMAAPTSEGRPLKPGQYVKPNFRLTEAEAPPSVAPRQAQPPQSLSLGRPRQAPVPPASHAPASRSASLSRAFSLASADLLRASGPEACKQESPQKLGAPEALGGRETGSHTLQSPAPPSSHSLARERTPLVGKAGSSCQGPGPRSRPLDTRRFSLAPPKEERLAPLHQSATAPAIATAGAGAAAAGSGSNSQLLHFSPAAAPAARTKPKAPPRSGEVATITPVRAGLSLSEGDGVPGQGCSEGLPAKSPGRSPDLAPHLGRALEDCSRGSVSKSSPASPEPGGDPQTVWYEYGCV
# modifications: left off: small tags and cut ends
# How the values were obtained:
# [1] = system: Ras-transformed NIH3T3 cells; experiment: Transformation assay, colony formation in soft agar; assay type: cell-based; details: NIH3T3 co-expressing HA-KRas G12V
# Description: Neoplastic transformationin Ras-transformed NIH3T3 fibroblasts was analyzed using standard assays of colony formation in soft agar as described previously (Clark et al, 1995). Low passage NIH3T3 cells (˜5000) stably co-transfected with appropriate myc-DAPLE construct (2 μg cDNA) and HA-Ras G12V (1 μg cDNA) were analyzed for their ability to form tumor foci in soft agar plates. Plates were incubated in 5% CO2 at 37° C. for ˜2 weeks in growth media supplemented with 2% FBS. They were finally incubated with 0.1% (wt/vol)dimethylthiazol-2-yl)2 2,5-diphenyl tetrazolium bromide (MTT; Sigma) in PBS for 1 h to visualize colonies. The remaining NIH3T3 cells not used for this assay were lysed and analyzed for myc-DAPLE and Ha-Ras G12V expression by immunoblotting.
# DLD1 cells [2] = experiment: Anchorage-independent tumor growth assay; assay type: cell-based, human; details: soft agar
# Description: Anchorage-independent growth of DLD1 cells was analyzed in agar as described previously (Wallert M A, 2007). Briefly, petri plates (60 mm) were pre-layered with 3 ml 1% Bacto agar (Life Technologies) in DMEM containing 10% FBS. Approximately ˜5000 DLD1 cells stably expressing various DAPLE constructs were then plated on top in 3 ml of 0.3% agar-DMEM with 10% FBS. All assays were carried out using three replicate plates at a seeding density of ˜5000 cells/plate. Following overnight incubation in 5% CO2 incubator, 1 ml DMEM supplemented with 2% FBS was added to maintain hydration. After 2 wks of growth, colonies were stained with 0.005% crystal violet/methanol for 1 h, and subsequently photographed by light microscopy. The number of colonies in ˜15-20 randomly-selected fields were counted under 10× magnification. The remaining DLD1 cells were lysed and analyzed by immunoblotting to confirm DAPLE construct expression. Each experiment was analyzed in triplicate.
# DLD1 cells [3] = experiment: Anchorage-dependent tumor growth assay; assay type: cell-based, human; details: for inhibition of anchorage-dependent tumor growth: DLD1 cells, plastic plates
# Description: Anchorage-dependent growth was monitored on solid (plastic) surface as described previously (Franken et al, 2006). Briefly, anchorage-dependent growth was monitored on solid (plastic) surface. Approximately ˜1000 DLD1 cells stably expressing various DAPLE constructs were plated in 6-well plates and incubated in 5% CO2 at 37° C. for ˜2 weeks in 0.2% FBS growth media. Colonies were then stained with 0.005% crystal violet for 1 h. The remaining DLD1 cells were lysed and analyzed by immunoblotting to confirm DAPLE construct expression. Each experiment was analyzed in triplicate.
# [4] = system: β-Catenin/TCF/LEF pathway in DLD1 7TGP cells; experiment: β-Catenin reporter assay (7TGP); assay type: cell-based, human; details: stable expression, starved and stimulated with Wnt5a, versus vector control
# Description: These assays were carried out using the well-established reporter 7×Tcf-eGFP (7TGP) (Fuerer & Nusse, 2010). Stable cells lines expressing this reporter were generated by lentiviral transduction and subsequent selection using standard procedures. Lentiviral infection and selection were performed according to standard procedures. Briefly, 10 cm plates DLD1 cells at 70% confluency were incubated with media containing 8 μg/mL polybrene and 10 μl of lentivirus for 6 h. After 24 hours post infection, selection of puromycin-resistant clones was initiated by adding the antibiotic at 2 μg/ml final concentration. The resultant DLD1-7TGP stable cells were subsequently transfected with various myc-DAPLE constructs and selected for G418 resistance as described earlier in methods. The DLD1-7TGP cells stably expressing myc-DAPLE were incubated overnight at 0.2% FBS, analyzed by fluorescence microscopy, and photographed prior to lysis. Whole cell lysates samples were then boiled in Laemmli's sample buffer and GFP protein expression was monitored by immunoblotting.
# NIH3T3 cells = experiment: 3D spheroid matrigel invasion assay; assay type: cell-based; details: in response to Wnt5a
# Description: NIH3T3 cell invasion assay in 3D culture was performed according to the manufacturer's protocol (Trevigen, Cultrex 3D Spheroid BME Cell Invasion Assay, catalog #3500-096-K). Briefly, non-invasive NIH3T3 cells (˜3000 cells) transfected with empty vector (control) or myc-DAPLEconstructs were incubated first in the Spheroid Formation extracellular matrix (ECM) containing 0.2% FBS for 3 days. Invasion matrix was then added and layered on top with media containing FBS. […] Photographs were analyzed and pseudocolored by Image J to reflect cell density.
# His-Gαi3 [5] = molecular target: T1, His-Gαi3 (Rattus norvegicus, UniProt P08753); experiment: Steady-state GTPase assay; assay type: biochemical; details: parallel reactions, WT replaced by F1675A
# T1 construct: His; made in house; host or cells: E. coli BL21 (DE3)
# Description: Under the experimental conditions of steady-state GTPase assays, GTP hydrolysis occurs as a two-step reaction, i.e., 1) GDP is released from the G protein and exchanged for GTP, and 2) the GTP loaded is hydrolyzed. Nucleotide exchange is the rate limiting step in this process because it is ˜50-100 times slower than GTP hydrolysis by Gαi subunits (Mukhopadhyay & Ross, 2002). Thus, the steady-state GTPase activity reflects the rate of nucleotide exchange, and was performed as described previously (Garcia-Marcos et al, 2010; Garcia-Marcos et al, 2012; Garcia-Marcos et al, 2011b). Briefly, His-Gαi3 (100 nM) was preincubated with different concentrations of His-DAPLE-CT (aa 1650-2028) for 15 min at 30° C. in assay buffer [20 mM Na-HEPES, pH 8, 100 mM NaCl, 1 mM EDTA, 2 mM MgCl2, 1 mM DTT, 0.05% (w:v) C12E10]. GTPase reactions were initiated at 30° C. by adding an equal volume of assay buffer containing 1 μM [γ-^32P]GTP (˜50 c.p.m/fmol). […] Samples were then centrifuged for 10 min at 10,000×g, and 500 μl of the resultant supernatant were scintillation counted to quantify released [^32P]Pi. For the time course experiments, data was expressed as raw c.p.m. For the dose-dependence curve experiments, the background [^32P]Pi detected at 15 min in the absence of G protein was subtracted from each reaction and data expressed as percentage of the Pi produced by His-Gαi3 in the absence of His-DAPLE-CT.
# His-Gαi3 [6] = molecular target: T1, His-Gαi3; experiment: GTPγS binding assay; assay type: biochemical; details: 0-2 μM, 15 min
# Description: GTPγS binding was measured using a filter binding method as described previously (Garcia-Marcos et al, 2010; Garcia-Marcos et al, 2011b). His-Gαi3 (100 nM) was preincubated with different concentrations of His-DAPLE-CT (aa 1650-2028) for 15 min at 30° C. in assay buffer [20 mM Na-HEPES, pH 8, 100 mM NaCl, 1 mM EDTA, 25 mM MgCl2, 1 mM DTT, 0.05% (w:v) C12E10]. Reactions were initiated at 30° C. by adding an equal volume of assay buffer containing 1 μM [^35S] GTPγS (˜50 c.p.m/fmol). Duplicate aliquots (25 μl) were removed at different time points, and binding of radioactive nucleotide was stopped by addition of 3 ml, ice-cold wash buffer (20 mM Tris-HCl, pH 8.0, 100 mM NaCl, 25 mM MgCl2). The quenched reactions were rapidly passed through BA-85 nitrocellulose filters (GE Healthcare) and washed with 4 ml wash buffer. Filters were dried and subjected to liquid scintillation counting. To determine the specific nucleotide binding, the background [^35S]GTPγS detected in the absence of G protein was subtracted from each reaction and data expressed as percentage of the [^35S] GTPγS bound by His-Gαi3 in the absence of His-DAPLE-CT.
# [7] = molecular target: T2, GST-Gαi3·Gβγ preformed complexes (Rattus norvegicus, UniProt P08753); experiment: Gβγ displacement assay; assay type: binding; details: 0.05-1 μM WT or 1 μM F1675A
# T2 construct: made in house; host or cells: E. coli BL21 (DE3) for GST-Gαi3; Gβγ endogenous from HEK293T lysate
# Description: This assay was performed as described previously (Garcia-Marcos et al, 2009). Briefly, GST alone or GST-Gαi3 proteins immobilized on glutathione-agarose beads were incubated overnight at 4° C. with HEK293T cell lysates in binding buffer [50 mM Tris-HCl, pH 7.4, 100 mM NaCl, 0.4% (v:v) NP-40, 10 mM MgCl2, 5 mM EDTA, 2 mM DTT, protease inhibitor cocktail supplemented with 30 μM GDP]. Unbound Gβγ-subunits were washed twice with the same buffer and proteins bound to the glutathione-agarose beads divided into equal aliquots containing ˜5 μg (˜0.4 μM) GST-fusion proteins. Aliquots were incubated with increasing concentrations (0.05-1 μM) of purified His-DAPLE-CT (1650-2028) wild-type or 1 μM His-DAPLE-CT F1675A in binding buffer supplemented with GDP (˜200 μl) for 5 h at 4° C. Glutathione-agarose beads were washed and bound proteins eluted by boiling in Laemmli sample buffer and separated by SDS-PAGE.
# GST-FZD7R-CT = molecular target: T3, GST-FZD7R-CT (Homo sapiens, UniProt O75084); experiment: GST-FZD7-CT pulldown of His-Gαi3; assay type: binding; details: His-Gαi3 preloaded with GDP, in the presence of DAPLE-CT
# T3 construct: the GST-tagged cytoplasmic tail of FZD7R; made in house; host or cells: bacteria (E. coli BL21 (DE3)); plasmid a gift of R. Yao
# Description: GST-FZD7-CT and GST-PBD constructs were immobilized on glutathione-Sepharose beads directly from bacterial lysates by overnight incubation at 4° C. with constant tumbling. Next morning, GST-FZD7-CT immobilized on glutathione beads were washed and subsequently incubated with His-tagged DAPLE-CT or Gαi3 proteins at 4° C. with constant tumbling. Washes and immunoblotting were performed as previously.
Molecule,reduction of number of colonies in soft-agar [1],inhibition of anchorage-independent tumor growth (DLD1 cells [2]),inhibition of anchorage-dependent tumor growth (DLD1 cells [3]),"adherent colonies per well (tumor growth) (DLD1 cells [3]; DLD1 cells stably expressing constructs, 2-3 weeks)",eGFP signal (Wnt transcriptional activity) [4],invasion of matrigel by spheroids (NIH3T3 cells),acceleration of steady-state GTPase activity diminished versus His-DAPLE-CT WT (His-Gαi3 [5]),initial rate of nucleotide (GTPγS) binding by His-Gαi3 (His-Gαi3 [6]),displacement of Gβγ from pre-assembled complex with GST-Gαi3 [7],increase of Gαi3 binding to GST-FZD7R-CT (GST-FZD7R-CT)
"DAPLE-FA: full length myc-DAPLE with F1675A mutation in the GBA motif, expressed in cells",failed to inhibit,enhanced oncogenicity,failed to inhibit,–,–,–,–,–,–,–
DAPLE-WT: myc-tagged full length human DAPLE (SEQ ID NO: 2) expressed in cells from pcDNA 3.1,~65%,~50%,~90%,can inhibit tumor growth,showed inhibition of eGFP,increase of invasion tracks,–,–,–,–
B1,–,–,–,–,–,–,> 90%,not significantly affected,not,not
